Results on 10 compounds are retold here after ChEMBL document CHEMBL1201862, “PubChem BioAssay data set” (2004).

The structures appear in SMILES notation.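 A five-concentration, 48-hour dose response in 96-well plates underlies each endpoint, interpolated linearly between surrounding concentrations. Here, GI50 denotes the concentration required for 50% inhibition of growth.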 The source made the active and inactive calls. Rule as the data show it: active = GI50 up to about 1.1 µM and inactive = higher.

Some test systems named below: 786-0; A549; CAKI-1; DU-145; HCT-15; HL-60; Hs-578T; IGROV-1; K562; MDA-MB-435; NCI-H226; NCI-H460; NCI-H522; OVCAR-5; PC-3; RPMI-8226; SF-268; SK-MEL-2; SK-MEL-5; U-251.
Assay in all cases: NCI tumour cell line growth inhibition, 48 h

With `CCn1c(-c2c(Cl)cc(O)cc2Cl)cc2c(Cl)cc(O)cc21`, the GI50 with 786-0 was 4.66 µM (inactive); in the assay on A549, 4.42 µM (inactive); in the assay on CAKI-1, 6.14 µM (inactive); with DU-145, 4.48 µM (inactive); in the assay with HCT-15, 3.48 µM; with HL-60, 3.43 µM (inactive). For the same compound, the GI50 is 5.07 µM (inactive) in the assay on Hs-578T; 3.21 µM (inactive) in the assay on IGROV-1; 3.41 µM (inactive) with K562; 1.67 µM (inactive) in the assay on MDA-MB-435; 26.4 µM (inactive) with NCI-H226; 3.56 µM (inactive) with NCI-H460. Further, the GI50 in the assay with NCI-H522 was 1.72 µM (inactive); in the assay on OVCAR-5, 8.97 µM (inactive); in the assay on PC-3, 9.04 µM (inactive); in the assay on RPMI-8226, 5.81 µM (inactive); in the assay on SF-268, 2.88 µM (inactive); in the assay on SK-MEL-2, 4.02 µM (inactive). The GI50 in the assay with SK-MEL-5 was 3.21 µM (inactive); in the assay with U-251, 4.03 µM (inactive).

As to `O=P(O)(CCP(=O)(O)c1ccccc1)c1ccccc1`, the GI50 is > 100 µM (inactive) in the assay with 786-0; > 100 µM (inactive) in the assay on A549; > 100 µM (inactive) in the assay on CAKI-1; > 100 µM (inactive) in the assay with DU-145; over 100 µM in the assay with HCT-15; > 100 µM (inactive) in the assay on HL-60. Moreover, the GI50 in the assay with Hs-578T, with IGROV-1, in the assay on K562, in the assay on MDA-MB-435, in the assay on NCI-H226 and in the assay on NCI-H460 was > 100 µM (inactive) in each case. Also, the GI50 in the assay with NCI-H522, in the assay on OVCAR-5, in the assay with PC-3, in the assay with RPMI-8226, in the assay on SF-268 and in the assay with SK-MEL-2 was > 100 µM (inactive) each time. For the same compound, the GI50 in the assay with SK-MEL-5 and in the assay with U-251 was > 100 µM (inactive) each time.

As to `CC(C)CNC(=O)Cn1c(-c2ccccc2)cc2ccccc21`, the GI50 with 786-0 was > 100 µM (inactive); in the assay on A549, > 100 µM (inactive); with CAKI-1, > 100 µM (inactive); in the assay on DU-145, > 100 µM (inactive); in the assay with HCT-15 it was over 100 µM; in the assay with HL-60 it was > 100 µM (inactive). For the same compound, the GI50 is 19.5 µM (inactive) with Hs-578T; > 100 µM (inactive) in the assay on IGROV-1; > 100 µM (inactive) in the assay with K562; > 100 µM (inactive) in the assay on MDA-MB-435; > 100 µM (inactive) with NCI-H226; > 100 µM (inactive) in the assay with NCI-H460. Further, the GI50 in the assay on NCI-H522 was 68.1 µM (inactive); with OVCAR-5, > 100 µM (inactive); with PC-3, > 100 µM (inactive); with RPMI-8226 it was > 100 µM (inactive); with SF-268, > 100 µM (inactive); in the assay on SK-MEL-2, > 100 µM (inactive). In addition, the GI50 with SK-MEL-5 and in the assay with U-251 was > 100 µM (inactive) each time.

With `COc1ccc(/C=N/N2C(=O)c3c(N)c(C#N)c(-c4ccccc4)c(-c4ccccc4)c3C2=O)cc1`, the GI50 is 64.6 µM (inactive) with 786-0; > 100 µM (inactive) in the assay with A549; > 100 µM (inactive) in the assay on CAKI-1; > 100 µM (inactive) with DU-145; over 100 µM in the assay on HCT-15; > 100 µM (inactive) with HL-60. Also, the GI50 in the assay with Hs-578T, in the assay with IGROV-1, in the assay with K562, in the assay on MDA-MB-435, in the assay with NCI-H226 and in the assay with NCI-H460 was > 100 µM (inactive) in each case. Besides, the GI50 with NCI-H522, in the assay on OVCAR-5, in the assay on PC-3, in the assay with RPMI-8226, in the assay on SF-268 and with SK-MEL-2 was > 100 µM (inactive) throughout. The GI50 in the assay with SK-MEL-5 is > 100 µM (inactive); in the assay with U-251, 98.6 µM (inactive).

Regarding `CC(=O)SC(C[N+](=O)[O-])c1ccccc1` (stereo not given), the GI50 in the assay with 786-0 is 3.95 µM (inactive); with A549, 3.82 µM (inactive); in the assay with CAKI-1 it was 14 µM (inactive); in the assay with DU-145, 6.37 µM (inactive); with HCT-15, 2.21 µM; with HL-60, 3.87 µM (inactive). For the same compound, the GI50 was 4.65 µM (inactive) with Hs-578T; 2.32 µM (inactive) in the assay with IGROV-1; 2.41 µM (inactive) in the assay with K562; 2.09 µM (inactive) in the assay with MDA-MB-435; 2.59 µM (inactive) with NCI-H226; 8.67 µM (inactive) in the assay on NCI-H460. Besides, the GI50 with NCI-H522 is 16.4 µM (inactive); in the assay on OVCAR-5 it was 3.8 µM (inactive); with PC-3, 10.7 µM (inactive); with RPMI-8226, 2.05 µM (inactive); with SF-268, 7.98 µM (inactive); with SK-MEL-2, 19.8 µM (inactive). The GI50 in the assay with SK-MEL-5 was 2.68 µM (inactive); in the assay with U-251 it was 3.79 µM (inactive).

Take `CCN(CC)CCCNc1ccc2nnn3c4ccc(O)cc4c(=O)c1c23`: the GI50 in the assay on 786-0 is 5.71 µM (inactive); with A549, 1.58 µM (inactive); in the assay on CAKI-1, 4.08 µM (inactive); in the assay on DU-145, 11.9 µM (inactive); in the assay with HCT-15, 5.06 µM; in the assay with HL-60 it was 5.55 µM (inactive). In addition, the GI50 is 14.4 µM (inactive) with Hs-578T; 4.86 µM (inactive) in the assay on IGROV-1; 7.23 µM (inactive) in the assay on K562; 10.2 µM (inactive) with MDA-MB-435; 6.87 µM (inactive) with NCI-H226; 0.653 µM (active) in the assay on NCI-H460. Besides, the GI50 in the assay on NCI-H522 is 3.05 µM (inactive); with OVCAR-5, 13.8 µM (inactive); with PC-3, 6.5 µM (inactive); in the assay with RPMI-8226, 3.28 µM (inactive); in the assay with SF-268 it was 5.3 µM (inactive); in the assay with SK-MEL-2 it was 15.1 µM (inactive). The GI50 is 7.55 µM (inactive) in the assay on SK-MEL-5 and 2.33 µM (inactive) in the assay on U-251.

Regarding `CCOP(=O)(OCC)OC1c2[nH]cc(C(=O)OCc3ccccc3)c2-c2cc(C(=O)OC)[nH]c2C1OC` (stereo not given), the GI50 in the assay on 786-0 was 7.76 µM (inactive); in the assay on A549, 5.85 µM (inactive); in the assay on CAKI-1, 20.2 µM (inactive); with DU-145 it was 11 µM (inactive); in the assay with HCT-15, 3.25 µM; in the assay on HL-60, 6.15 µM (inactive). Also, the GI50 with Hs-578T is 16.8 µM (inactive); with IGROV-1, 7.59 µM (inactive); in the assay on K562, > 20 µM (inactive); with MDA-MB-435 it was > 60.1 µM (inactive); in the assay with NCI-H226 it was 16.1 µM (inactive); with NCI-H460 it was 4.55 µM (inactive). Moreover, the GI50 in the assay with NCI-H522 was 6.53 µM (inactive); with OVCAR-5, 37 µM (inactive); in the assay with PC-3, 4.94 µM (inactive); with RPMI-8226, 5.62 µM (inactive); with SF-268 it was 12.5 µM (inactive); in the assay with SK-MEL-2 it was 9.4 µM (inactive). In addition, the values for the GI50 with SK-MEL-5 and in the assay on U-251 were 7.46 µM (inactive) and 11.4 µM (inactive), respectively.

For the compound `CC(Oc1ccccc1Cl)C(=O)NN1C(=O)CC(=O)NC1=S` (stereo not given), the GI50 was > 100 µM (inactive) in the assay with 786-0; > 100 µM (inactive) with A549; > 100 µM (inactive) in the assay with CAKI-1; > 100 µM (inactive) with DU-145; over 100 µM in the assay on HCT-15; 9.23 µM (inactive) in the assay with HL-60. Further, the GI50 is > 100 µM (inactive) in the assay with Hs-578T; > 100 µM (inactive) in the assay with IGROV-1; 9.53 µM (inactive) in the assay on K562; > 100 µM (inactive) in the assay with MDA-MB-435; > 100 µM (inactive) with NCI-H226; > 100 µM (inactive) in the assay with NCI-H460. Besides, the GI50 was > 100 µM (inactive) in the assay with NCI-H522; > 100 µM (inactive) in the assay with OVCAR-5; > 100 µM (inactive) in the assay with PC-3; 98.9 µM (inactive) with RPMI-8226; > 100 µM (inactive) in the assay on SF-268; 93.5 µM (inactive) in the assay with SK-MEL-2. Besides, the GI50 in the assay on SK-MEL-5 and in the assay with U-251 was > 100 µM (inactive) in each case.

As for `O=C1C(CN2CCCC2)CCC1CN1CCCC1` (stereo not given), the GI50 in the assay on 786-0 is 15.8 µM (inactive); with A549 it was > 100 µM (inactive); in the assay on CAKI-1, 11 µM (inactive); with DU-145, 97.3 µM (inactive); in the assay on HCT-15, 17.7 µM; with HL-60, 2.42 µM (inactive). Also, the GI50 with Hs-578T is 22.3 µM (inactive); in the assay with IGROV-1 it was 27.9 µM (inactive); with K562, 2.9 µM (inactive); with MDA-MB-435, 17.6 µM (inactive); in the assay with NCI-H226, > 48.2 µM (inactive); with NCI-H460 it was > 100 µM (inactive). For the same compound, the GI50 in the assay on NCI-H522 is 1.9 µM (inactive); with OVCAR-5, > 41.3 µM (inactive); with PC-3 it was 23.7 µM (inactive); with RPMI-8226 it was 3.59 µM (inactive); in the assay on SF-268 it was 20.8 µM (inactive); in the assay on SK-MEL-2, 21.2 µM (inactive). The GI50 with SK-MEL-5 was 17.3 µM (inactive); in the assay on U-251 it was > 100 µM (inactive).

In the case of `O=C1c2ccccc2-c2nc(-c3cccc([N+](=O)[O-])c3)nnc21`, the GI50 in the assay with 786-0 was 30.5 µM (inactive); in the assay with A549, 4.62 µM (inactive); with CAKI-1, 4.24 µM (inactive); with DU-145 it was 4.25 µM (inactive); in the assay on HCT-15 it was 15.7 µM; in the assay with HL-60, 3.07 µM (inactive). For the same compound, the GI50 in the assay on Hs-578T was 12.4 µM (inactive); with IGROV-1 it was 28.8 µM (inactive); with K562, 5.94 µM (inactive); with MDA-MB-435 it was 1.97 µM (inactive); in the assay on NCI-H226, 7.91 µM (inactive); in the assay on NCI-H460 it was 3.96 µM (inactive). Also, the GI50 in the assay on NCI-H522 was 26.5 µM (inactive); with OVCAR-5, 20.1 µM (inactive); in the assay on PC-3 it was 40.2 µM (inactive); with RPMI-8226, 2.94 µM (inactive); with SF-268, 43.1 µM (inactive); in the assay with SK-MEL-2, 18.9 µM (inactive). For the same compound, the GI50 in the assay on SK-MEL-5 is 2.69 µM (inactive); with U-251 it was 4.5 µM (inactive).
